# Measured values as given in US9527851B2, “Pyrrole six-membered heteroaryl ring derivative, preparation method thereof, and medicinal uses thereof” (Jiangsu Hengrui Medicine Co., Ltd., priority 2011, dated 2016).
# What was measured:
# [1] = test system: human erythroid leukemia cell line TF-1; assay: Proliferation inhibition assay on human erythroid leukemia cell line TF-1 mediated by IL-4 (Cell Counting Kit-8); format: cell-based; details: TF-1 cells, 10 ng/mL IL-4, 72 hours
# Text: The following in vitro assay is to determine the activity of the compounds of the present invention for inhibiting the proliferation of human erythroid leukemia cell line TF-1.
# The activity is represented by the IC50 value, which can not only reflect the activity of a test compound for inhibiting JAK2 and JAK3 kinase, but can also reflect the selectivity of a test compound for JAK2 and JAK3 kinase.
# The general procedures of the assay are given as follows: first, the TF-1 cells (purchased from ATCC, Catalog number: CRL 2003) were seeded in a 96-well cell culture plate at a suitable cell concentration (8000 cells/mL medium), and 10 ng/mL IL-4 (Invitrogen, Catalog Number: PHC0044) were added to each well. Then 10× serial concentration gradient of test compounds solutions (10000, 1000, 100, 10, 1 and 0.1 nM) were prepared, and then the 10× compound solutions prepared above were added to the 96-well cell culture plate containing IL-4. After the cell plates were cultured continuously for 72 hours, the activity of the test compounds for inhibiting the cell proliferation was determined by using a Cell Counting Kit-8 (purchased from Dojindo, Catalog Number: CK04). IC50 values were calculated from the data of the inhibition rates at various concentrations of the test compounds.
# (§1) The biological activity of the compounds of the present invention was tested by using the assay described above.
# JAK2 kinase = JAK2 kinase (Homo sapiens (Human), UniProt O60674); assay: Assay for inhibiting JAK2 kinase (in vitro kinase assay, HRP anti-phosphotyrosine antibody/TMB absorbance); format: biochemical; details: 20 μM ATP, 50 minutes at room temperature; read-out: IC50 (JAK2/Bio)
# Experimental: In vitro activity of compounds of the present invention for inhibiting JAK2 kinase was determined by the following method.
# [2] = Pharmacokinetics assay in rats, intragastric administration, plasma by LC/MS/MS; format: in vivo, Sprague-Dawley (SD) rats; details: both sexes, Sprague-Dawley, rat, plasma, po, SD rats, 10 mg/kg; for Vd/F: read-out: Apparent Distribution Volume Vz/F; for AUC: read-out: Area Under Curve AUC; for CL/F: read-out: Clearance CL/F; for half-life: read-out: Half-Life t½ (converted); for Cmax: read-out: Plasma Conc. Cmax
# Method in brief: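 Fasted SD rats of both sexes dosed intragastrically at 10.0 mg/kg as a 1.0 mg/mL DMSO suspension; fed 2 h post-dose. Plasma sampled at various time points, protein-precipitated with methanol plus internal standard, and analyzed by LC-MS/MS.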
# T cells = assay: Proliferation inhibition assay on T cells (PBMC, anti-CD3, IL-2, ATPlite); format: cell-based; details: Homo sapiens, T-cell; IL-2 10 ng/mL, 72 hours
# Text: The following in vitro assay is to determine the activity of the compounds of the present invention for inhibiting the proliferation of T cells.
# The activity is represented by the IC50 value.
# The general procedures of the assay are given as follows: first, the PBMC cell line (purchased from Shanghai Blood Center) was centrifuged, the supernatant was removed, and the cells counted. […] Then, the cells were washed 3 times, resuspended, diluted to 2×10^6/mL, and then mixed with recombinant human IL-2 (purchased from Peprotech, Catalog Number: 200-02) to a concentration of 10 ng/mL, and cultured for another 3 days. The cells were washed again 3 times, and diluted to 5×10^5/mL. 80 μL of the cells were seeded in each well of a 96-well cell culture plate. […] To the control wells, 10 μL culture medium were added. The plate was placed in an incubator. After incubating for 1 hr, negative control wells were mixed with 10 μL of culture medium, and the rest of the wells were mixed with IL-2 to a concentration of 10 ng/mL, and incubated continuously for 72 hours. […] IC50 values were calculated from the data of inhibition rates at various concentrations of the test compounds.
# as §1
# JAK3 kinase = JAK3 kinase (Homo sapiens (Human), UniProt P52333); assay: Assay for inhibiting JAK3 kinase (in vitro kinase assay, HRP anti-phosphotyrosine antibody/TMB absorbance); format: biochemical; details: 50 minutes at room temperature; read-out: IC50 (JAK3/Bio)
# Experimental: In vitro activity of compounds of the present invention for inhibiting JAK3 kinase was determined by the following method.
# JAK1 kinase = JAK1 kinase (Homo sapiens (Human), UniProt P23458); assay: Assay for inhibiting JAK1 kinase (in vitro kinase assay, HRP anti-phosphotyrosine antibody/TMB absorbance); format: biochemical; details: 20 μM ATP, 50 minutes at room temperature; read-out: IC50 (JAK1/Bio)
# Experimental: In vitro activity of compounds of the present invention for inhibiting JAK1 kinase was determined by the following method.
# IC50 values of test compounds was calculated from the data of the test compounds in inhibiting the activity of JAK1 kinase at different concentrations.
# Chain of JAK1 kinase (P23458 whole entry): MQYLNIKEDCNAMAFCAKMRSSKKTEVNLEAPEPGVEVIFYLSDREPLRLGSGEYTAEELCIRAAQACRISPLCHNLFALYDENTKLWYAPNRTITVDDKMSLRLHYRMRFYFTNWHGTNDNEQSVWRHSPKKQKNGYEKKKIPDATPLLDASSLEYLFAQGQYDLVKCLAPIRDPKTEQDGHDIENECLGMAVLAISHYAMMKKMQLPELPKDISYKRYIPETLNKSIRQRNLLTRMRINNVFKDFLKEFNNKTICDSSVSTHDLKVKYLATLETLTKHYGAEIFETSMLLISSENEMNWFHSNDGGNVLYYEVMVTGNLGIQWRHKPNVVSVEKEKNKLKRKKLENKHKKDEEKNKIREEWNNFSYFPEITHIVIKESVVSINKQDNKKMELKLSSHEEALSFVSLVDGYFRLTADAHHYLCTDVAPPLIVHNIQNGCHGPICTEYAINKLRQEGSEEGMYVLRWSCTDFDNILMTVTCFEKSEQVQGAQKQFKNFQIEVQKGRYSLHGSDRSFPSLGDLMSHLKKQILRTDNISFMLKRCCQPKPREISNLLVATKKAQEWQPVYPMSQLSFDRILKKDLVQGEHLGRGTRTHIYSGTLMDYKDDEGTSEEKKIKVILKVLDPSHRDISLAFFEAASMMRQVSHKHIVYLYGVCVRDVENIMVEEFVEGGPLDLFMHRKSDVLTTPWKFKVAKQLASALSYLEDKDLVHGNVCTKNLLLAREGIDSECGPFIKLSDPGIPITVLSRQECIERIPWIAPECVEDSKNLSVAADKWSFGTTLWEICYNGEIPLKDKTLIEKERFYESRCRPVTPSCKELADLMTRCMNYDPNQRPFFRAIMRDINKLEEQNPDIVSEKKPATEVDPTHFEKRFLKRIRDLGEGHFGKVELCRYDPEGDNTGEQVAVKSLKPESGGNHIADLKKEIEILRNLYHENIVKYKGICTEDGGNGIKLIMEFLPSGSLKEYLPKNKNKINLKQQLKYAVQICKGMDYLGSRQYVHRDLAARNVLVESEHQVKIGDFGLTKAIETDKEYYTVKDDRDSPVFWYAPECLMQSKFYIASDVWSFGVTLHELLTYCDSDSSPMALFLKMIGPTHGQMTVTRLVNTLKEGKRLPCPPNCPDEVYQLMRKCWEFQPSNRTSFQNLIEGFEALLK
# Chain of JAK2 kinase (O60674 whole entry): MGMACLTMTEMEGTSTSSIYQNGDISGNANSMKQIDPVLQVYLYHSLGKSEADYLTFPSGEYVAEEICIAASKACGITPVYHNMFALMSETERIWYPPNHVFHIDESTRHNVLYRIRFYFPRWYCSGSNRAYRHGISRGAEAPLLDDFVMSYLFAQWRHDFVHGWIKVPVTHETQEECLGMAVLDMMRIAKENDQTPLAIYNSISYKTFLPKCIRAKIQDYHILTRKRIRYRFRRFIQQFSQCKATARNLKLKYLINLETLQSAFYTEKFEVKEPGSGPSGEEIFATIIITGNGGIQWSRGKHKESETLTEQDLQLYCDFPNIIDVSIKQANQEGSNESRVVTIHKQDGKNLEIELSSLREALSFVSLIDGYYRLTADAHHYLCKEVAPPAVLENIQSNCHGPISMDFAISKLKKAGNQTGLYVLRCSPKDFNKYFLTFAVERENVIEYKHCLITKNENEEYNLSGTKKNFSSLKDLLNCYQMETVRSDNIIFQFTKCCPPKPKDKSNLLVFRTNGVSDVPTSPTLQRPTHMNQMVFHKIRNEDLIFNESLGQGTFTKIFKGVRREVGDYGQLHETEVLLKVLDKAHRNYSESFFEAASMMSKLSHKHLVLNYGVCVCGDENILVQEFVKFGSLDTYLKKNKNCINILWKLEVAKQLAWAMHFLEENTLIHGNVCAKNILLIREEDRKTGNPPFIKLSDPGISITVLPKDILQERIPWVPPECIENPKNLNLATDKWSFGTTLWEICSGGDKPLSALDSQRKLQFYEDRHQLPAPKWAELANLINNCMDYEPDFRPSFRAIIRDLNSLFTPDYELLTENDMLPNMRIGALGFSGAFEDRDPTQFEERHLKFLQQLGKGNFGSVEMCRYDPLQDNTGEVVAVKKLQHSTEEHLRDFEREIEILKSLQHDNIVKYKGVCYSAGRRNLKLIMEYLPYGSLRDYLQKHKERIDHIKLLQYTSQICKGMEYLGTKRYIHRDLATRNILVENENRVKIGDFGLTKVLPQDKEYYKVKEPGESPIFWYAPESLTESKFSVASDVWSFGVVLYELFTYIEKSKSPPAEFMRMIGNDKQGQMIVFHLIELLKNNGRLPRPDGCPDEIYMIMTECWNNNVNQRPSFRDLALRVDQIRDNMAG
# Chain of JAK3 kinase (P52333 whole entry): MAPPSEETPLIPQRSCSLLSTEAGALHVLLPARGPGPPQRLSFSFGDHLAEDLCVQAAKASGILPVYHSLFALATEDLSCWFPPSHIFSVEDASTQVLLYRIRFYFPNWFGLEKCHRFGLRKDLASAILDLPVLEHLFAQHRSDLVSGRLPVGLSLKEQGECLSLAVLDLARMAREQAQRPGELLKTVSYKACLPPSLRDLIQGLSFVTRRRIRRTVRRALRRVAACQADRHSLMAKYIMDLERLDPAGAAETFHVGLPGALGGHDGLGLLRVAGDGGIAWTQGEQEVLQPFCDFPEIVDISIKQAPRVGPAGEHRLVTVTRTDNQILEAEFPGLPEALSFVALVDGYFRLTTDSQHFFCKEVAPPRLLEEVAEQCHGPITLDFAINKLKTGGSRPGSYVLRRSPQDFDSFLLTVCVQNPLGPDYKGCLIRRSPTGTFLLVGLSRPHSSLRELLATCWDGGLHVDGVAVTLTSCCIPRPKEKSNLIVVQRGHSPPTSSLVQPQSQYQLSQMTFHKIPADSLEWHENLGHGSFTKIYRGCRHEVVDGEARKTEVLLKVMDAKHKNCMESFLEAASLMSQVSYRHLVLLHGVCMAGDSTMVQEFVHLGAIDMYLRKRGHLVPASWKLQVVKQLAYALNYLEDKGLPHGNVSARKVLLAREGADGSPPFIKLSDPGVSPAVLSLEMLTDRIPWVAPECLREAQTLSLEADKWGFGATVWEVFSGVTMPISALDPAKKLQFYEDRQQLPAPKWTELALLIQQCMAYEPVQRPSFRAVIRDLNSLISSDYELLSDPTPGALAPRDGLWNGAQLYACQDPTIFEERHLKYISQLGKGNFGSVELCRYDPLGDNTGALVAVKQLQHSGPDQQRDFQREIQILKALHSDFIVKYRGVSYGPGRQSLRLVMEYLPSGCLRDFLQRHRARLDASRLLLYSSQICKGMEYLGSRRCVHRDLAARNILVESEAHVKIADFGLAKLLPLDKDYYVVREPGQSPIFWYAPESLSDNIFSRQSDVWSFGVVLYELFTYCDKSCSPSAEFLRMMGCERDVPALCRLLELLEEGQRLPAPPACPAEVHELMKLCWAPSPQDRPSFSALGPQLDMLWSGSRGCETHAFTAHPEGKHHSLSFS
IC50 ([1]; Homo sapiens),SMILES,IC50 [1],IC50 (JAK2 kinase),Vd/F [2],AUC [2],CL/F [2],half-life [2],Cmax [2],IC50 (T cells),IC50 (JAK3 kinase),IC50 (JAK1 kinase),MRT ([2]; read-out: Mean Residence Time MRT),"IC50 ([1]; Homo sapiens, TF-1, 72 h)"
,"CN(c1ncnc2[nH]ccc12)[C@H]1C[C@H]2CNC(=O)C[C@H]2C1 [Example 40, (4aR,6R,7aR)-6-(Methyl(7H-pyrrolo[2,3-d]pyrimidin-4-yl)amino) hexahydro-1H-cyclopenta[c]pyridin-3(2H)-one]",399 nM,23 nM,6.99 ± 3.39 L/kg,5230 ± 1170 ng·h/mL,33.2 ± 7.7 mL/min/kg,163 ± 109 min,1520 ± 317 ng/mL,,,,,
152 nM,"CN(c1ncnc2[nH]ccc12)[C@H]1C[C@@H]2CN(C(=O)[C@H](O)C(F)(F)F)C[C@@H]2C1 [Example 94, (S)-3,3,3-trifluoro-2-hydroxy-1-((3aR,5R,6aS)-5-(methyl(7H-pyrrolo[2,3-d]pyrimidin-4-yl)amino)hexahydrocyclopenta[c]pyrrol-2(1H)-yl)propan-1-one]",,,,,,,,127 nM,,,,
,"CN(c1ncnc2[nH]ccc12)[C@H]1C[C@@H]2CN(C(=O)CO)C[C@@H]2C1 [Example 6, 2-Hydroxy-1-((3aR,5S,6aS)-5-(methyl(7H-pyrrolo[2,3-d]pyrimidin-4-yl)amino)hexahydrocyclopenta[c]pyrrol-2(1H)-yl)ethanone]",,45 nM,34.5 ± 21 L/kg,2210 ± 1470 ng·h/mL,110 ± 71 mL/min/kg,241 ± 91.2 min,1230 ± 549 ng/mL,,11 nM,5 nM,2.19 ± 0.6 h,
,"CN(c1ncnc2[nH]ccc12)[C@H]1C[C@H]2CNC(=O)C[C@H]2C1 [Example 147, (4aR,6R,7aR)-6-(methyl(7H-pyrrolo[2,3-d]pyrimidin-4-yl)amino)hexahydro-1H-cyclopenta[c]pyridin-3(2H)-one]",15 nM,5 nM,,,,,,,,,,
,"CN(c1ncnc2[nH]ccc12)[C@@H]1C[C@H]2CN(C(=O)CO)C[C@@]2(C)C1 (racemic) [Example 14, 2-hydroxy-1-((3aS,5R,6aR/3aS,5R,6aR)-3a-methyl-5-(methyl(7H-pyrrolo[2,3-d]pyrimidin-4-yl)amino)hexahydrocyclopenta[c]pyrrol-2(1H)-yl)ethanone]",,,,,,,,712 nM,,30 nM,,
,"CC(C)C(=O)N1CC[C@H]2C[C@@H](N(C)c3ncnc4[nH]ccc34)C[C@H]2C1 [Example 151, 2-methyl-1-((4aS,6R,7aR)-6-(methyl(7H-pyrrolo[2,3-d]pyrimidin-4-yl)amino)hexahydro-1H-cyclopenta[c]pyridin-2(3H)-yl)propan-1-one]",,127 nM,,,,,,,203 nM,106 nM,,
,"CN(c1ncnc2[nH]ccc12)[C@@H]1CC2CNC(=O)CC2C1 (stereo partly drawn) [Example 148, (6S)-6-(methyl(7H-pyrrolo[2,3-d]pyrimidin-4-yl)amino)hexahydro-1H-cyclopenta[c]pyridin-3(2H)-one]",,23 nM,6.99 ± 3.39 L/kg,5230 ± 1170 ng·h/mL,33.2 ± 7.7 mL/min/kg,163 ± 109 min,1520 ± 317 ng/mL,,,,,399 nM
